Laboratory results taken from PubChem BioAssay (NCI).
Several values for one entry are separate records, joined by “and”; a condition that tells them apart may be missing. Equal values may be shown once.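 Method: 48-hour compound exposure of cells in 96-well plates, five concentrations, linear interpolation of endpoints. Abbreviation: GI50, concentration required for 50% inhibition of growth. At the TGI there is no net growth.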

These compounds were tested on NCI-H460 lung (assay: growth of human tumour cells (NCI), 48 h).

For `O=C1NC(=O)C(c2cnc3ccccn23)=C1c1cn2c3c(cc(F)cc13)CN(C(=O)N1CCCCC1)CC2`, which GI50 is on record?
The GI50 was 2450 nM.

And the TGI?
Its TGI is 29.1 µM.

What does the source list for `Clc1nc2ccccc2nc1CI`?
GI50: 11000 nM; TGI: 28.5 µM

Which results are given for `Cn1nc(N)c2cc([C@@H]3Nc4ccc5[nH]ncc5c4[C@H]4C5CCC(C5)[C@@H]34)ccc21` (stereo partly specified)?
GI50: 402 nM; TGI: 11.6 µM

What does the source list for `Cn1cc(CO)c2c1C(=O)C=C(N1CC1)C2=O`?
GI50: < 10 nM; TGI: 1.27 µM

For `O=C(O)C1C2C=CC(O2)C1C(=O)NCc1ccccn1` (stereo unspecified), which TGI is on record?
The TGI was > 100 µM.

`CCN(CC)CCCC(CNc1ccnc2cc(Cl)ccc12)c1ccc(Cl)cc1` (stereo unspecified) was tested. Which GI50 did it give?
Its GI50 is 1900 nM and 1740 nM.

And the TGI?
Its TGI is 3.95 µM and 3.82 µM.

Which results are given for `[Cl][Hg][c]1cc(Br)cc(Br)c1`?
GI50: 2050 nM; TGI: 7.61 µM

With `C=C1C(=O)O[C@@H]2C[C@@H]1CC/C(C)=C/CC/C(C)=C/CC[C@@]2(C)O` as the compound, how does the GI50 read?
The GI50 was 16500 nM.

And the TGI?
Its TGI is 43.2 µM.

`CCN1CCN(C(c2ccc(C(F)(F)F)cc2)c2ccc3cccnc3c2O)CC1` (stereo unspecified) was tested. Which GI50 did it give?
Its GI50 is 412 nM.

What about the TGI of the same compound?
The TGI was 10.8 µM.

For `COc1ccc(C(C)=O)cc1N1C(=O)C2C(C1=O)C1(c3ccccc3)C(=O)C2(c2ccccc2)C(c2ccc(C)cc2)=C1c1ccc(C)cc1` (stereo unspecified), which GI50 is on record?
Its GI50 is > 100000 nM.

What about the TGI of the same compound?
Its TGI is > 100 µM.

For `NC(=Nc1c([N+](=O)[O-])cnc2ccccc12)N1CCOCC1`, which TGI is on record?
Its TGI is > 100 µM.

Which results are given for `CCN(CC)c1ccc2c(c1)OC(N)=C(C#N)C2c1cc(OC)c2c(c1)OCO2` (stereo unspecified)?
GI50: 33.6 nM; TGI: 0.503 µM

Which results are given for `N#CC(=C1C=CC(=NO)C=C1)c1ccccc1`?
GI50: 1300 nM; TGI: 6.11 µM

For `CC(C)=CCNc1ncnc2c1ncn2C1OC(CO)C(O)C1O` (stereo unspecified), which GI50 is on record?
Its GI50 is 4020 nM.

And the TGI?
Its TGI is > 345 µM.

With `COc1ccc(CN2C(=O)/C(=C\C(=O)c3ccc(OCCN4CCCCC4)cc3)c3ccccc32)cc1` as the compound, how does the GI50 read?
Its GI50 is 7670 nM.

What about the TGI of the same compound?
The TGI was 22.3 µM.

For `O=C(CNc1ccc(Cl)cc1)Nc1ccc(-c2nc3ccccc3s2)cc1`, which GI50 is on record?
The GI50 was 3620 nM.

And the TGI?
The TGI was 12.7 µM.

Which results are given for `CCN(CC)CCC(CNc1ccnc2cc(Cl)ccc12)c1ccc(OC)cc1` (stereo unspecified)?
GI50: 11100 nM and 4910 nM; TGI: 25.6 µM and 24.7 µM

What does the source list for `COc1ccc(/C=C(/C(=O)N2CCN(c3ccccc3)CC2)c2cc(OC)c(OC)c(OC)c2)cc1O`?
GI50: 374 nM; TGI: > 100 µM

For `Cc1ccc(C)c(C2=C(c3cn(C)c4ccccc34)C(=O)NC2=O)c1`, which GI50 is on record?
The GI50 was > 17400 nM.

What about the TGI of the same compound?
Its TGI is > 25 µM.

`CN1CCN(CCOc2ccc(-c3cnc4c(-c5ccccc5F)cnn4c3)cc2)CC1` was tested. Which GI50 did it give?
Its GI50 is 1630 nM.

What about the TGI of the same compound?
Its TGI is 3.05 µM.

With `CN(C)N=Nc1ccc(NC=O)cc1` as the compound, how does the TGI read?
The TGI was > 100 µM.

Which TGI does the source give for `C=C1C(=O)OC2CCN3CC=C(COC(=O)C(C)(O)C4(CO4)C1C)C23` (stereo unspecified) here?
Its TGI is > 100 µM.

Each compound was assayed on OVCAR-3 ovarian (assay: growth of human tumour cells (NCI), 48 h).

For `OC[C@H]1C[C@](O)(c2ccc(Cl)cc2)[C@@H](c2ccc(Cl)cc2)O1`, which GI50 is on record?
Its GI50 is 26200 nM.

What about the TGI of the same compound?
Its TGI is 58.9 µM.

How did the TGI turn out when `COc1cc(C#CC(=O)OC/C=C/c2ccc3c(c2)OCO3)cc(OC)c1OC` was run?
The TGI was 63.3 µM.

`O/N=C/C1C(OCc2ccccc2)C(OCc2ccccc2)C(OCc2ccccc2)CN1Cc1ccccc1` (stereo unspecified) was tested. Which GI50 did it give?
The GI50 was 16900 nM and 7690 nM.

And the TGI?
Its TGI is 40.2 µM and > 100 µM.

Which results are given for `O=C1NC(=O)C(c2cnc3ccccn23)=C1c1cn2c3c(cc(F)cc13)CN(C(=O)N1CCCCC1)CC2`?
GI50: 11800 nM; TGI: 44 µM

What does the source list for `Clc1nc2ccccc2nc1CI`?
GI50: 5100 nM; TGI: 9.66 µM

With `Cn1nc(N)c2cc([C@@H]3Nc4ccc5[nH]ncc5c4[C@H]4C5CCC(C5)[C@@H]34)ccc21` (stereo partly specified) as the compound, how does the GI50 read?
The GI50 was 337 nM.

And the TGI?
Its TGI is 4.07 µM.

Which results are given for `Cn1cc(CO)c2c1C(=O)C=C(N1CC1)C2=O`?
GI50: < 13.3 nM; TGI: 0.0375 µM

How did the TGI turn out when `O=C(O)C1C2C=CC(O2)C1C(=O)NCc1ccccn1` (stereo unspecified) was run?
The TGI was > 100 µM.

What does the source list for `CCN(CC)CCCC(CNc1ccnc2cc(Cl)ccc12)c1ccc(Cl)cc1` (stereo unspecified)?
GI50: 2460 nM and 2380 nM; TGI: 7.73 µM and 9.83 µM

Which GI50 does the source give for `[Cl][Hg][c]1cc(Br)cc(Br)c1` here?
Its GI50 is 1190 nM.

What about the TGI of the same compound?
The TGI was 2.46 µM.

For `C=C1C(=O)O[C@@H]2C[C@@H]1CC/C(C)=C/CC/C(C)=C/CC[C@@]2(C)O`, which GI50 is on record?
Its GI50 is 5590 nM.

What about the TGI of the same compound?
Its TGI is 18.7 µM.

Which results are given for `CCN1CCN(C(c2ccc(C(F)(F)F)cc2)c2ccc3cccnc3c2O)CC1` (stereo unspecified)?
GI50: 3470 nM; TGI: 15.4 µM

Which GI50 does the source give for `COc1ccc(C(C)=O)cc1N1C(=O)C2C(C1=O)C1(c3ccccc3)C(=O)C2(c2ccccc2)C(c2ccc(C)cc2)=C1c1ccc(C)cc1` (stereo unspecified) here?
Its GI50 is > 100000 nM.

What about the TGI of the same compound?
Its TGI is > 100 µM.

With `NC(=Nc1c([N+](=O)[O-])cnc2ccccc12)N1CCOCC1` as the compound, how does the TGI read?
Its TGI is > 100 µM.

For `CCN(CC)c1ccc2c(c1)OC(N)=C(C#N)C2c1cc(OC)c2c(c1)OCO2` (stereo unspecified), which GI50 is on record?
Its GI50 is 16.8 nM.

What about the TGI of the same compound?
The TGI was 0.0466 µM.

What does the source list for `N#CC(=C1C=CC(=NO)C=C1)c1ccccc1`?
GI50: 458 nM; TGI: 4.38 µM

How did the GI50 turn out when `CC(C)=CCNc1ncnc2c1ncn2C1OC(CO)C(O)C1O` (stereo unspecified) was run?
The GI50 was 373 nM.

And the TGI?
The TGI was 1.1 µM.

With `COc1ccc(CN2C(=O)/C(=C\C(=O)c3ccc(OCCN4CCCCC4)cc3)c3ccccc32)cc1` as the compound, how does the GI50 read?
The GI50 was 1930 nM.

What about the TGI of the same compound?
Its TGI is 3.94 µM.

With `O=C(CNc1ccc(Cl)cc1)Nc1ccc(-c2nc3ccccc3s2)cc1` as the compound, how does the GI50 read?
Its GI50 is 2040 nM.

And the TGI?
Its TGI is 3.99 µM.

Which results are given for `CCN(CC)CCC(CNc1ccnc2cc(Cl)ccc12)c1ccc(OC)cc1` (stereo unspecified)?
GI50: 16700 nM and 6960 nM; TGI: 66.3 µM and 33.1 µM

Which GI50 does the source give for `COc1ccc(/C=C(/C(=O)N2CCN(c3ccccc3)CC2)c2cc(OC)c(OC)c(OC)c2)cc1O` here?
Its GI50 is 322 nM.

What about the TGI of the same compound?
Its TGI is 6.76 µM.

How did the GI50 turn out when `Cc1ccc(C)c(C2=C(c3cn(C)c4ccccc34)C(=O)NC2=O)c1` was run?
Its GI50 is 15100 nM.

What about the TGI of the same compound?
Its TGI is > 25 µM.

Which results are given for `CN1CCN(CCOc2ccc(-c3cnc4c(-c5ccccc5F)cnn4c3)cc2)CC1`?
GI50: 1810 nM; TGI: 4.02 µM

For `CN(C)N=Nc1ccc(NC=O)cc1`, which TGI is on record?
Its TGI is > 100 µM.

What follows are compounds tested on RPMI-8226 leukemia (assay: growth of human tumour cells (NCI), 48 h).

What does the source list for `OC[C@H]1C[C@](O)(c2ccc(Cl)cc2)[C@@H](c2ccc(Cl)cc2)O1`?
GI50: 13.7 µM; TGI: 34.9 µM
